Reference: patent publication US11497752B2, “Compounds and uses thereof” (Foghorn Therapeutics Inc., priority 2018, dated 2022)
pIC50: −log10 of the molar value.

How the values were obtained:
[1] = target: BRG-1 (Homo sapiens, UniProt P51532); test: ATPase catalytic activity of BRG-1 (ADP-Glo in vitro biochemical assay)
[2] = target: BRM (Homo sapiens, UniProt P51531); test: ATPase catalytic activity of BRM (ADP-Glo in vitro biochemical assay)
Chain of BRM (P51531 whole entry): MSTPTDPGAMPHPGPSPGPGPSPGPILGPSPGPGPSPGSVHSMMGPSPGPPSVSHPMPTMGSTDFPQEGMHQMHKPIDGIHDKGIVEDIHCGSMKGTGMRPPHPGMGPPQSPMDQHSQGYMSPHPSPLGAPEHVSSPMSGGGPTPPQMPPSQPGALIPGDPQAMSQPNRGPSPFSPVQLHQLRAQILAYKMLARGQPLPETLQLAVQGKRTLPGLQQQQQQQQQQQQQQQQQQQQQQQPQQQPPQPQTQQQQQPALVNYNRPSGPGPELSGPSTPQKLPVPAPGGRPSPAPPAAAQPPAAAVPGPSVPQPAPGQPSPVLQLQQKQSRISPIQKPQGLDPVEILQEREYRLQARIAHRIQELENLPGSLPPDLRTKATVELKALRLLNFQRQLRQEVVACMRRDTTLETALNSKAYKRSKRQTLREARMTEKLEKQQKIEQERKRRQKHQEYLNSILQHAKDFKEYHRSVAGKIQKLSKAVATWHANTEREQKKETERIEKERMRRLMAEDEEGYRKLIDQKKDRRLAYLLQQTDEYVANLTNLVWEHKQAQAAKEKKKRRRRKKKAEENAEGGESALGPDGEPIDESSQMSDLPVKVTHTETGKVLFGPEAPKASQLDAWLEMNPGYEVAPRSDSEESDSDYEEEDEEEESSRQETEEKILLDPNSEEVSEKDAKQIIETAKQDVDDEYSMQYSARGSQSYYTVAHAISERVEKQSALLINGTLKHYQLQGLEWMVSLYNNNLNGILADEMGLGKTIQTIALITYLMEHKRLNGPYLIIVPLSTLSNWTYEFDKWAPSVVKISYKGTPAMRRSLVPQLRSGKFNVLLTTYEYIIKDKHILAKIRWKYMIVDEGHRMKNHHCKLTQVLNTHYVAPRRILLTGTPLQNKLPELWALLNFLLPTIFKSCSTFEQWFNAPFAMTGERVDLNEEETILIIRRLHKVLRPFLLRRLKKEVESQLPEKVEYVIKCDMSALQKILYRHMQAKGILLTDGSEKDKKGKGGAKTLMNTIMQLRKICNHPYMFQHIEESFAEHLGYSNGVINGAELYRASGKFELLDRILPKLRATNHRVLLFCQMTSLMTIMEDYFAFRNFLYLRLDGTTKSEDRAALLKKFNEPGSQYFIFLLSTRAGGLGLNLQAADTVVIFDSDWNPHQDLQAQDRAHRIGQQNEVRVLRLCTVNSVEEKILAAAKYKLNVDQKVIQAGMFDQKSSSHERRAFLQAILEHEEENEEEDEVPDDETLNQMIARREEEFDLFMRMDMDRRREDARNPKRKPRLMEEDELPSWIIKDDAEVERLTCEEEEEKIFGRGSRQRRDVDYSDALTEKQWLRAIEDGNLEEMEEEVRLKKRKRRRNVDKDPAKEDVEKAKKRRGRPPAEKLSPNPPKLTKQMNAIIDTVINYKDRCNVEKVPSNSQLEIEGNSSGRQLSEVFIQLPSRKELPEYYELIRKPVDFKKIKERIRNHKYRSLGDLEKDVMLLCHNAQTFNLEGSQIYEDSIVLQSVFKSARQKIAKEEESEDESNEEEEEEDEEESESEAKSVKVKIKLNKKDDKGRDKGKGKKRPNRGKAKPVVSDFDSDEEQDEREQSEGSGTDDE

Chain of BRG-1 (P51532 whole entry): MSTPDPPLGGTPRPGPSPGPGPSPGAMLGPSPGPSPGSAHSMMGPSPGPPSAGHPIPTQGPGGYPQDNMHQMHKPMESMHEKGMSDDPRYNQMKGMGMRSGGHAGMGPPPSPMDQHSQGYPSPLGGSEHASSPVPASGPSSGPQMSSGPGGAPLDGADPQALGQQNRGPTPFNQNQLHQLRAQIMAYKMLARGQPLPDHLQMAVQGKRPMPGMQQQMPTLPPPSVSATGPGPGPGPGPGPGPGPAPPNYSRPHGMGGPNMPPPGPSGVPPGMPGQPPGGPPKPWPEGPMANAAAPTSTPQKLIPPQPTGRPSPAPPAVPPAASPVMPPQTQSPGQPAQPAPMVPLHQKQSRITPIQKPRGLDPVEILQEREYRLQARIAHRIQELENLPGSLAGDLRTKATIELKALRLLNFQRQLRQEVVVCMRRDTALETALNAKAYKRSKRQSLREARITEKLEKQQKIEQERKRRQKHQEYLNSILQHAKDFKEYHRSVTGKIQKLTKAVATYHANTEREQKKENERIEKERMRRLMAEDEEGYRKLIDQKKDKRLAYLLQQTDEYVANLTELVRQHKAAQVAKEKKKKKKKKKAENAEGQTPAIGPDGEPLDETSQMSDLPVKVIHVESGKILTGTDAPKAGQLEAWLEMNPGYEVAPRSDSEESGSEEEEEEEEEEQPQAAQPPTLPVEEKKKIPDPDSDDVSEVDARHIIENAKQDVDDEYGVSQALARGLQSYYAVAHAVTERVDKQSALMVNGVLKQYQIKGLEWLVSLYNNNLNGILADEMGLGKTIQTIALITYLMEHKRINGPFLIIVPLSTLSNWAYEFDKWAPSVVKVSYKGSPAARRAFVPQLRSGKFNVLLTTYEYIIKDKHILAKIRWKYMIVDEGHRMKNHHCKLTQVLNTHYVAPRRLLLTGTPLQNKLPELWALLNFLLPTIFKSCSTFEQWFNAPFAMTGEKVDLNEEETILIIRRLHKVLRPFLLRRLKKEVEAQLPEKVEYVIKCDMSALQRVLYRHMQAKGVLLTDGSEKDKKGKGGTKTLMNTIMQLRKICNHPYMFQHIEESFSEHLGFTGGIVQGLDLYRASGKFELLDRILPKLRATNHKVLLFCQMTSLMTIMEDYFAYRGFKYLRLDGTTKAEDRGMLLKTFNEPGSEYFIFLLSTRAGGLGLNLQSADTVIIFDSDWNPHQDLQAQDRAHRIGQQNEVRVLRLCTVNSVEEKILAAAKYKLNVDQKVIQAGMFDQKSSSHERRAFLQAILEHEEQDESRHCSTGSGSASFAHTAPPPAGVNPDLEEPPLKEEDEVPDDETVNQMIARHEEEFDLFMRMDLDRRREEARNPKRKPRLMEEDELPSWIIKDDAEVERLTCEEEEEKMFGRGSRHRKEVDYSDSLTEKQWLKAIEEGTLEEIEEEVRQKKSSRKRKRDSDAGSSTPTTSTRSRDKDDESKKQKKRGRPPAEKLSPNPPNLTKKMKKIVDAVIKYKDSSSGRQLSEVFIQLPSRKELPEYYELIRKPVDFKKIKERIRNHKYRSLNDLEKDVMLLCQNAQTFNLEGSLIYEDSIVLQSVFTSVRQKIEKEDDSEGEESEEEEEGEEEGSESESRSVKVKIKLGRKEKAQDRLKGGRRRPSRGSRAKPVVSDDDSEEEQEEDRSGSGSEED

| pIC50 [1] | BRG1 Max % Inhibition ([1]; Table 6) | pIC50 [2] | BRM Max % Inhibition ([2]; Table 6) | BRG1 Max % Inhibition ([1]; Table 5) | BRM Max % Inhibition ([2]; Table 5) | Structure (SMILES) |
| --- | --- | --- | --- | --- | --- | --- |
| 6.00 to 7.00 | >95% | 6.00 to 7.00 | >95% | – | – | NCC1CCC(c2cccc(-c3csc(NC(=O)CNC(=O)c4ccc(N)cc4)n3)c2)CC1 (centres unmarked) [Compound 169, 4-amino-N-(2-((4-(3-(4-(aminomethyl)cyclohexyl)phenyl)thiazol-2-yl)amino)-2-oxoethyl)benzamide] |
| 6.00 to 7.00 | >95% | 6.00 to 7.00 | >90% | – | – | COC(=O)Cn1cc(-c2cccc(-c3csc(NC(=O)CNC(=O)c4ccc(N)cc4)n3)c2)cn1 [Compound 180, methyl 2-(4-(3-(2-(2-(4-aminobenzamido)acetamido)thiazol-4-yl)phenyl)-1H-pyrazol-1-yl)acetate] |
| 6.00 to 7.00 | >90% | 6.00 to 7.00 | >95% | – | – | CNCc1cc(-c2cccc(-c3csc(NC(=O)CNC(=O)c4ccc(N)cc4)n3)c2)ccn1 [Compound 196, 4-amino-N-[2-[[4-[3-[2-(methylaminomethyl)-4-pyridyl]phenyl]thiazol-2-yl]amino]-2-oxo-ethyl]benzamide] |
| 6.00 to 7.00 | >90% | 6.00 to 7.00 | >95% | – | – | Nc1ccc(C(=O)NCC(=O)Nc2nc(-c3cccc(COC4CCOCC4)c3)cs2)cc1 [Compound 230, 4-amino-N-[2-oxo-2-[[4-[3-(tetrahydropyran-4-yloxymethyl)phenyl]thiazol-2-yl]amino]ethyl]benzamide] |
| > 7.00 | >95% | > 7.00 | >95% | – | – | Nc1ccc(C(=O)NCC(=O)Nc2nc(-c3ccc4cc[nH]c(=O)c4c3)cs2)cc1 [Compound 147, 4-amino-N-(2-oxo-2-((4-(1-oxo-1,2-dihydroisoquinolin-7-yl)thiazol-2-yl)amino)ethyl)benzamide] |
| 6.00 to 7.00 | >80% | 6.00 to 7.00 | >90% | – | – | CN(C)CC[C@H](NC(=O)c1ccc(N)cc1)C(=O)Nc1nc(-c2cccc(-c3ccncc3)c2)cs1 [Compound 233, (S)-4-amino-N-(4-(dimethylamino)-1-oxo-1-((4-(3-(pyridin-4-yl)phenyl)thiazol-2-yl)amino)butan-2-yl)benzamide] |
| > 7.00 | >95% | > 7.00 | >95% | – | – | Nc1ccc(C(=O)NCC(=O)Nc2nc(-c3cccc(-c4ccncn4)c3)cs2)cc1 [Compound 227, 4-amino-N-[2-oxo-2-[[4-(3-pyrimidin-4-ylphenyl)thiazol-2-yl]amino]ethyl]benzamide] |
| 6.00 to 7.00 | >50% | 6.00 to 7.00 | >80% | – | – | O=C(CNC(=O)c1ccc2c(c1)CC(O)CN2)Nc1nc(-c2cccc(-c3ccncc3)c2)cs1 (centres unmarked) [Compound 105, 3-hydroxy-N-[2-oxo-2-[[4-[3-(4-pyridyl)phenyl]thiazol-2-yl]amino]ethyl]-1,2,3,4-tetrahydroquinoline-6-carboxamide] |
| > 7.00 | >90% | > 7.00 | >95% | – | – | Cn1ncc2ccc(-c3csc(NC(=O)CNC(=O)c4ccc(N)cc4)n3)cc2c1=O [Compound 150, 4-amino-N-(2-((4-(3-methyl-4-oxo-3,4-dihydrophthalazin-6-yl)thiazol-2-yl)amino)-2-oxoethyl)benzamide] |
| 6.00 to 7.00 | >95% | 6.00 to 7.00 | >95% | – | – | CN(C)CCNC(=O)Cc1cc(-c2cccc(-c3csc(NC(=O)CNC(=O)c4ccc(N)cc4)n3)c2)ccn1 [Compound 186, 4-amino-N-[2-[[4-[3-[2-[2-[2-(dimethylamino)ethylamino]-2-oxo-ethyl]-4-pyridyl]phenyl]thiazol-2-yl]amino]-2-oxo-ethyl]benzamide] |
| 6.00 to 7.00 | >95% | 6.00 to 7.00 | >95% | – | – | Nc1ccc(C(=O)NCC(=O)Nc2nc(-c3cccc(-c4cccc(C(=O)O)c4)c3)cs2)cc1 [Compound 136, 3′-(2-(2-(4-aminobenzamido)acetamido)thiazol-4-yl)-[1,1′-biphenyl]-3-carboxylic acid] |
| 6.00 to 7.00 | >95% | > 7.00 | >95% | – | – | Nc1ccc(C(=O)NCC(=O)Nc2nc(-c3cccc(-c4cccc(O)c4)c3)cs2)cc1 [Compound 141, 4-amino-N-(2-((4-(3′-hydroxy-[1,1′-biphenyl]-3-yl)thiazol-2-yl)amino)-2-oxoethyl)benzamide] |
| 6.00 to 7.00 | >95% | 6.00 to 7.00 | >95% | – | – | CC(=O)N(C)Cc1cccc(-c2cccc(-c3csc(NC(=O)CNC(=O)c4ccc(N)cc4)n3)c2)c1 [Compound 129, 4-amino-N-(2-((4-(3′-((N-methylacetamido)methyl)-[1,1′-biphenyl]-3-yl)thiazol-2-yl)amino)-2-oxoethyl)benzamide] |
| 6.00 to 7.00 | >95% | 6.00 to 7.00 | >95% | – | – | CSCC[C@H](NC(=O)c1ccc(N)cc1)C(=O)Nc1nc(-c2ccc(CNC(C)=O)cc2)cs1 [Compound 121, (S)-N-(1-((4-(4-(acetamidomethyl)phenyl)thiazol-2-yl)amino)-4-(methylthio)-1-oxobutan-2-yl)-4-aminobenzamide] |

Continued, compound first:

| Structure (SMILES) | pIC50 [1] | BRG1 Max % Inhibition ([1]; Table 6) | pIC50 [2] | BRM Max % Inhibition ([2]; Table 6) | BRG1 Max % Inhibition ([1]; Table 5) | BRM Max % Inhibition ([2]; Table 5) |
| --- | --- | --- | --- | --- | --- | --- |
| CS(=O)(=O)c1cccc(C(=O)NCC(=O)Nc2nc(-c3cccc(-c4ccccc4)c3)cs2)c1 [Compound 36, 3-methylsulfonyl-N-[2-oxo-2-[[4-(3-phenylphenyl)thiazol-2-yl]amino]ethyl]benzamide] | 5.00 to 6.00 | – | > 6.00 | – | >90% | >95% |
| CN(C)S(=O)(=O)c1cccc(C(=O)NCC(=O)Nc2nc(-c3ccccc3)cs2)c1 [Compound 13, 3-(dimethylsulfamoyl)-N-[2-oxo-2-[(4-phenylthiazol-2-yl)amino]ethyl]benzamide] | 5.00 to 6.00 | – | 5.00 to 6.00 | – | >30% | >80% |
| CSCC[C@H](NC(=O)c1ccc(O)cc1)C(=O)Nc1nc(-c2ccccc2)cs1 [Compound 53, 4-hydroxy-N-[(1S)-3-methylsulfanyl-1-[(4-phenylthiazol-2-yl)carbamoyl]propyl]benzamide] | 5.00 to 6.00 | – | 5.00 to 6.00 | – | – | – |
| COc1ccc(C(=O)N[C@@H](CCSC)C(=O)Nc2nc(-c3ccccc3)cs2)cc1S(C)(=O)=O [Compound 20, 4-methoxy-N-[(1S)-3-methylsulfanyl-1-[(4-phenylthiazol-2-yl)carbamoyl]propyl]-3-methylsulfonyl-benzamide] | < 5.00 | – | < 5.00 | – | >60% | >70% |
| CSCC[C@H](NC(=O)c1ccc(S(=O)(=O)N(C)C)s1)C(=O)Nc1nc(-c2ccccc2)cs1 [Compound 62, 5-(dimethylsulfamoyl)-N-[(1S)-3-methylsulfanyl-1-[(4-phenylthiazol-2-yl)carbamoyl]propyl]thiophene-2-carboxamide] | 5.00 to 6.00 | – | 5.00 to 6.00 | – | >70% | >80% |
| O=C(CNC(=O)c1ccc2cncn2c1)Nc1nc(-c2cccc(-c3ccncc3)c2)cs1 [Compound 101, N-(2-oxo-2-((4-(3-(pyridin-4-yl)phenyl)thiazol-2-yl)amino)ethyl)imidazo[1,5-a]pyridine-6-carboxamide] | 6.00 to 7.00 | >95% | 6.00 to 7.00 | >95% | – | – |
| CSCC[C@H](NC(=O)c1ccc(CN(C)C)cc1)C(=O)Nc1nc(-c2ccccc2)cs1 [Compound 60, 4-[(dimethylamino)methyl]-N-[(1S)-3-methylsulfanyl-1-[(4-phenylthiazol-2-yl)carbamoyl]propyl]benzamide] | < 5.00 | – | < 5.00 | – | >80% | >90% |
| CN(C)S(=O)(=O)c1cccc(C(=O)NCC(=O)Nc2nc(-c3ccccn3)cs2)c1 [Compound 32, 3-(dimethylsulfamoyl)-N-[2-oxo-2-[[4-(2-pyridyl)thiazol-2-yl]amino]ethyl]benzamide] | < 5.00 | – | < 5.00 | – | <30% | >30% |
| CC(C)CC[C@H](NC(=O)c1ccccc1)C(=O)Nc1nc(-c2ccccc2)cs1 [Compound 46, N-[(1S)-4-methyl-1-[(4-phenylthiazol-2-yl)carbamoyl]pentyl]benzamide] | 5.00 to 6.00 | – | 5.00 to 6.00 | – | – | – |
| NS(=O)(=O)c1cccc(C(=O)NCC(=O)Nc2nc(-c3ccccc3)cs2)c1 [Compound 28, N-(2-oxo-2-((4-phenylthiazol-2-yl)amino)ethyl)-3-sulfamoylbenzamide] | 5.00 to 6.00 | – | 5.00 to 6.00 | – | >30% | >50% |
| O=C(CNC(=O)c1cc2c(s1)CCC2)Nc1nc(-c2ccccc2)cs1 [Compound 79, N-[2-oxo-2-[(4-phenylthiazol-2-yl)amino]ethyl]-5,6-dihydro-4H-cyclopenta[b]thiophene-2-carboxamide] | 5.00 to 6.00 | – | > 6.00 | – | >30% | >30% |
| Cc1ccccc1-c1csc(NC(=O)CNC(=O)c2cccc(S(=O)(=O)N(C)C)c2)n1 [Compound 16, 3-(dimethylsulfamoyl)-N-[2-[[4-(o-tolyl)thiazol-2-yl]amino]-2-oxo-ethyl]benzamide] | < 5.00 | – | 5.00 to 6.00 | – | >60% | >80% |
| NCc1ccc(C(=O)NCC(=O)Nc2nc(-c3cccc(-c4ccncc4)c3)cs2)cc1 [Compound 100, 4-(aminomethyl)-N-(2-oxo-2-((4-(3-(pyridin-4-yl)phenyl)thiazol-2-yl)amino)ethyl)benzamide] | 5.00 to 6.00 | >80% | 6.00 to 7.00 | >80% | – | – |
